Results on three molecules are retold here after publication PMC11391541, “Target-Directed Dynamic Combinatorial Chemistry Affords Binders of Mycobacterium tuberculosis IspE” (ACS Omega, 2024).

A short description of data set [1]: solubility in M. tuberculosis 7H9 growth medium. The class given is physicochemical. The conditions noted are these: M. tuberculosis 7H9 growth medium, plasma or biological fluid, kinetic from dmso stock; Mtb 7H9 growth medium. The procedure:
Prior to biological evaluation of the tdDCC hits, we tested their solubility in a standard buffer as well as in M. tuberculosis 7H9 growth medium. […] Regrettably, with 3.3 μM the least soluble compound is E1, making our most amplified and promising compound unsuitable for biological evaluation. We assessed the solubility in Mtb growth medium given that it is a complex, nutrient-rich environment with a distinct solubility profile. However, the trend continued, only seven hits are soluble at 8 μM or above, the remaining five compounds, including E1, were not eligible for antitubercular activity testing (Table 1).
Determination of in vitro anti-tubercular activity and solubility in 7H9 medium Anti-tubercular tests were performed as previously described .1 In brief, 7H9 complete medium (BD Difco; Becton Dickinson, Maryland,USA) supplemented with 10% OADC (BD), 0.2% glycerol, and 0.05% Tween80 as previously described ,3 was used to culture Mycobacterium tuberculosis (Mtb) strain H37Rv (ATCC 25618) carrying a mCherry -expressing plasmid (pCherry10 ).4 Cultures were harvested at mid-log phase and frozen in aliquots at – 80 °C. Prior to testing aliquots were thawed followed by centrifugation and the pellet was resuspended in 7H9 medium with 10% OADC (without glycerol and Tween80). This was further thoroughly resuspended by passing it through a syringe with a 26 -gauge needle to avoid clumping of the bacteria. 2×10^5 CFU (colony forming units) were then cultured in a total volume of 100 μl culture medium (triplicates) to test the non-precipitating compounds for the anti-tubercular activity at the concentrations indicated. For these assays, 96-well flat clear bottom black polystyrene microplates (Corning® CellBIND®, Merck, New York, USA) wer e used. Each plate had Rifampicin (at 1 μg/ml and 0.1 μg/ml) (National Reference Center, Borstel) as a reference compound. Plates were sealed with an air -permeable membrane (Porvair Sciences, Wrexham, UK) in a 37 °C incubator with mild agitation (TiMix5, Edmund Bühler, Germany). The activity of compounds was determined after 7 days by measuring the bacterial growth as relative light units (RLU) from the fluorescence intensity obtained at an excitation wavelength of 575 nm and an emission wavelength of 635 n m in a microplate reader (Synergy 2, BioTek Instruments, Vermont, USA). Two independent experiments (each in triplicates) were performed, and all values were normalized to untreated control sample (100%) in each experiment.
To obtain information regarding the toxicity of our compounds, their impact on the viability of human cells was investigated. HepG2 cells (2x10^4 cells per well) were seeded in 96 -well, flat-bottomed culture plates in 100 µL culture medium (DMEM containing 10% fetal calve serum, 1% penicillin -streptomycin). Twenty-four hours after seeding the cells, medium was removed and replaced by medium containing test compounds in a final DMSO concentration of 1%. Compounds were tested in duplicates at a single concentration or, for CC50 determination, at 8 concentrations that were prepared via 2 -fold serial dilutions in 1% DMSO/medium. Epirubicin and doxorubicin were used as positive controls in serial dilutions starting from 10 µM, and rifampicin was used as a negative control (at 100 µM). The living cell mass was determined 48 h after treatment with compounds by adding 0.1 volumes of 3 -(4,5-dimethylthiazol-2-yl)-2,5-diphenyltetrazolium bromide (MTT) solution (5 mg/mL sterile PBS) (Sigma, St. Louis, MO) to the wells. After incubating the cells for 30 min at 37 °C (atmosphere containing 5% CO2), medium was removed and MTT crystals were dissolved in 75 µL of a solution containing 10% SDS and 0.5% acetic acid in DMSO. The optical density (OD) of the samples was determined photometrically at 570 nm in a PHERAstar Omega plate reader (BMG labtech, Ortenberg, Germany). To obtain percent viability for each sample, their ODs were related to those of DMSO controls. […]

Another data set in a line: in vitro. The conditions noted are these: human, HepG2 CC50, HepG2, 48 h, MTT.
In the next data set the test system is MtbH37Rv. The data set is classed as cell-based, Mycobacterium tuberculosis.
The next data set has as its system fungi. Details: method as in PMID 25943854. The conditions noted are these: cited from earlier work.

With `COc1ccc(-c2cc(/C=N/NC(=O)c3cc(CC(C)C)n[nH]3)no2)cc1` [D6, (E)-3-Isobutyl-N′-((5-(4-methoxyphenyl)isoxazol-3-yl)methylene)-1H-pyrazole-5-carbohydrazide], the solubility in data set [1] amounted to 16 µM. The CC50 in “in vitro” is more than 50 µM. The “MtbH37Rv MIC90” value in the data set with MtbH37Rv was “no inh. at max. sol”.
The corresponding values for `O=C(N/N=C/c1ccc(C(F)(F)F)cc1)c1cccc(Cl)c1` [K4, (E)-3-Chloro-N′-(4-(trifluoromethyl)benzylidene)benzohydrazide] are 8 µM, more than 50 µM and “no inh. at max. sol”.
On to `O=C(N/N=C/c1cc(Cl)ccc1O)c1ccncc1` [L1, (E)-N′-(5-Chloro-2-hydroxybenzylidene)isonicotinohydrazide], for which the solubility in data set [1] is 16 µM. The molecule also came in with a CC50 in “in vitro” of approximately 50 µM. In the data set with fungi, the antifungal properties result was “antifungal properties”. In addition, the “MtbH37Rv MIC90” value with MtbH37Rv is on record as “no inh. at max. sol”.
